Results published in PubChem BioAssay AID248 (DTP/NCI, 2004).
Where “and” joins values, the source holds several entries; their conditions need not be identical. Identical values can stand only once. Inconclusive results and toxic doses are left out. No stated cut-off is given here; in the data, active means T/C of 150% or more; inactive means T/C below 125%.

System: L1210 leukemia ip in BDF1 mice, survival T/C
Assay: NCI In Vivo Anticancer Drug Screen. Data for tumor model L1210 Leukemia (intraperitoneal) in B6D2F1 (BDF1) mice
Conditions: higher = longer survival
Outline: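 Mice bearing the transplanted tumor received compound or vehicle. Survival of the treated group was divided by that of the vehicle-treated control group to give the ratio.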

[1] = endpoint: mean survival time, dose: 100.0 mg/kg/injection, schedule: Q01DX009 (ip), vehicle: Klucel (hydroxypropylcellulose) (HPC)
[2] = endpoint: mean survival time, dose: 200.0 mg/kg/injection, schedule: Q01DX009 (ip), vehicle: Klucel (hydroxypropylcellulose) (HPC)
[3] = endpoint: mean survival time, dose: 100.0 mg/kg/injection, schedule: Q04DX003 (ip), vehicle: saline with Tween-80
[4] = endpoint: mean survival time, dose: 200.0 mg/kg/injection, schedule: Q04DX003 (ip), vehicle: saline with Tween-80
[5] = endpoint: mean survival time, dose: 400.0 mg/kg/injection, schedule: Q04DX003 (ip), vehicle: saline with Tween-80
[6] = endpoint: mean survival time, dose: 100.0 mg/kg/injection, schedule: Q01DX009 (ip), vehicle: saline with Tween-80
[7] = endpoint: mean survival time, dose: 200.0 mg/kg/injection, schedule: Q01DX009 (ip), vehicle: saline with Tween-80

Measured: T/C

Cn1c(=O)c2[nH]c(C3CCCCCC3)nc2n(C)c1=O
inactive: endpoint: mean survival time, dose: 50.0 mg/kg/injection, schedule: Q01DX001 (ip), vehicle: saline 87 % of control | endpoint: mean survival time, dose: 100.0 mg/kg/injection, schedule: Q01DX001 (ip), vehicle: saline 96 % of control | endpoint: mean survival time, dose: 200.0 mg/kg/injection, schedule: Q01DX001 (ip), vehicle: saline 87 % of control

NC(N)=N/N=C(\C=N\N=C(N)N)c1ccc(CCc2ccc(C(/C=N/N=C(N)N)=N\N=C(N)N)cc2)cc1
inactive: endpoint: mean survival time, dose: 1.56 mg/kg/injection, schedule: Q04DX003 (ip), vehicle: saline 98 % of control | endpoint: mean survival time, dose: 3.12 mg/kg/injection, schedule: Q04DX003 (ip), vehicle: saline 103 % of control

O=Cc1cc(Cl)cc(Cl)c1OC(=O)c1ccccc1
inactive: [1] 97 % of control | [2] 92 % of control

CCOP(=S)(N/N=C\C(C)(C)C1CCCCC1)OCC
inactive: endpoint: mean survival time, dose: 100.0 mg/kg/injection, schedule: Q01DX001 (ip), vehicle: carboxymethylcellulose (CMC) 94 % of control | endpoint: mean survival time, dose: 200.0 mg/kg/injection, schedule: Q01DX001 (ip), vehicle: carboxymethylcellulose (CMC) 91 % of control | endpoint: mean survival time, dose: 400.0 mg/kg/injection, schedule: Q01DX001 (ip), vehicle: carboxymethylcellulose (CMC) 98 % of control

O=C1CC(N2C(=O)C3C4CCC(O4)C3C2=O)C(=O)N1 (centres undefined)
inactive: [3] 100 % of control | [4] 108 % of control | [5] 104 % of control

OB(O)c1ccc(F)cc1
inactive: endpoint: mean survival time, dose: 100.0 mg/kg/injection, schedule: Q04DX003 (ip), vehicle: acetone 101 % of control | endpoint: mean survival time, dose: 200.0 mg/kg/injection, schedule: Q04DX003 (ip), vehicle: acetone 98 % of control | endpoint: mean survival time, dose: 400.0 mg/kg/injection, schedule: Q04DX003 (ip), vehicle: acetone 97 % of control

C=CCOCC(O)C[As](=O)(O)c1ccc(OC)cc1 (centres undefined)
inactive: endpoint: mean survival time, dose: 25.0 mg/kg/injection, schedule: Q04DX003 (ip), vehicle: saline with Tween-80 87 % of control

Clc1ccc(/C=C/c2ccccn2)c(Cl)c1
inactive: endpoint: mean survival time, dose: 100.0 mg/kg/injection, schedule: Q04DX002 (ip), vehicle: gum acacia 109 % of control | endpoint: mean survival time, dose: 200.0 mg/kg/injection, schedule: Q04DX002 (ip), vehicle: gum acacia 95 % of control | endpoint: mean survival time, dose: 400.0 mg/kg/injection, schedule: Q04DX002 (ip), vehicle: gum acacia 87 % of control

CNC(=O)Oc1ccc(N=Nc2ccccc2)cc1
inactive: endpoint: mean survival time, dose: 100.0 mg/kg/injection, schedule: Q01DX001 (ip), vehicle: other 96 % of control | endpoint: mean survival time, dose: 200.0 mg/kg/injection, schedule: Q01DX001 (ip), vehicle: other 96 % of control | endpoint: mean survival time, dose: 400.0 mg/kg/injection, schedule: Q01DX001 (ip), vehicle: other 96 % of control

CSCS(=O)C[C@H](CO)NC(=O)/C=C/c1c(C)[nH]c(=O)[nH]c1=O (some centres undefined)
inactive: endpoint: mean survival time, dose: 0.38 mg/kg/injection, schedule: Q01DX001 (ip), vehicle: saline 105 % of control | endpoint: mean survival time, dose: 0.39 mg/kg/injection, schedule: Q04DX002 (ip), vehicle: Klucel (hydroxypropylcellulose) (HPC) 96 % of control | endpoint: mean survival time, dose: 0.75 mg/kg/injection, schedule: Q01DX001 (ip), vehicle: saline 103 % of control | endpoint: mean survival time, dose: 0.75 mg/kg/injection, schedule: Q01DX Z (ip), vehicle: carboxymethylcellulose (CMC) 86 % of control | endpoint: mean survival time, dose: 0.78 mg/kg/injection, schedule: Q04DX002 (ip), vehicle: Klucel (hydroxypropylcellulose) (HPC) 96 % of control | endpoint: mean survival time, dose: 1.1 mg/kg/injection, schedule: Q01DX001 (ip), vehicle: carboxymethylcellulose (CMC) 106 % of control | endpoint: mean survival time, dose: 1.5 mg/kg/injection, schedule: Q01DX001 (ip), vehicle: saline 116 % of control | endpoint: mean survival time, dose: 1.56 mg/kg/injection, schedule: Q04DX002 (ip), vehicle: Klucel (hydroxypropylcellulose) (HPC) 110 % of control | endpoint: mean survival time, dose: 1.7 mg/kg/injection, schedule: Q01DX001 (ip), vehicle: carboxymethylcellulose (CMC) 112 % of control | endpoint: mean survival time, dose: 2.6 mg/kg/injection, schedule: Q01DX001 (ip), vehicle: carboxymethylcellulose (CMC) 112 % of control | endpoint: mean survival time, dose: 3.0 mg/kg/injection, schedule: Q01DX001 (ip), vehicle: saline 111 % of control | endpoint: mean survival time, dose: 3.13 mg/kg/injection, schedule: Q04DX002 (ip), vehicle: Klucel (hydroxypropylcellulose) (HPC) 104 % of control | endpoint: median survival time, dose: 4.0 mg/kg/injection, schedule: Q04DX003 (ip), vehicle: saline 121 % of control

Cc1ccc(C(=O)NN2C(N)=NC(N)=NC2(C)C)cc1
inactive: endpoint: mean survival time, dose: 100.0 mg/kg/injection, schedule: Q01DX009 (ip), vehicle: saline sonified 111 % of control | endpoint: mean survival time, dose: 200.0 mg/kg/injection, schedule: Q01DX009 (ip), vehicle: saline sonified 92 % of control

[Cl][Sn]([c]1ccccc1)([c]1ccccc1)[c]1ccccc1
inactive: endpoint: mean survival time, dose: 2.5 mg/kg/injection, schedule: Q01DX009 (ip), vehicle: Klucel (hydroxypropylcellulose) (HPC) 89 % of control | endpoint: mean survival time, dose: 5.0 mg/kg/injection, schedule: Q01DX001 (ip), vehicle: saline 95 % of control | endpoint: mean survival time, dose: 5.0 mg/kg/injection, schedule: Q01DX009 (ip), vehicle: Klucel (hydroxypropylcellulose) (HPC) 97 % of control and 106 % of control | endpoint: mean survival time, dose: 5.0 mg/kg/injection, schedule: Q04DX003 (ip), vehicle: Klucel (hydroxypropylcellulose) (HPC) 95 % of control | endpoint: mean survival time, dose: 10.0 mg/kg/injection, schedule: Q01DX001 (ip), vehicle: saline 101 % of control | endpoint: mean survival time, dose: 10.0 mg/kg/injection, schedule: Q04DX003 (ip), vehicle: Klucel (hydroxypropylcellulose) (HPC) 90 % of control | endpoint: mean survival time, dose: 20.0 mg/kg/injection, schedule: Q01DX001 (ip), vehicle: saline 95 % of control | endpoint: mean survival time, dose: 40.0 mg/kg/injection, schedule: Q01DX001 (ip), vehicle: saline 91 % of control

CC(C)CNCc1cc(Nc2ccnc3cc(Cl)ccc23)ccc1O
inactive: endpoint: mean survival time, dose: 100.0 mg/kg/injection, schedule: Q04DX002 (ip), vehicle: saline 94 % of control | endpoint: mean survival time, dose: 200.0 mg/kg/injection, schedule: Q04DX002 (ip), vehicle: saline 98 % of control

Oc1cc(O)c2c(c1)OC(c1ccc(O)c(O)c1)C(O)C2c1c(O)cc(O)c2c1OC(c1ccc(O)c(O)c1)C(O)C2 (centres undefined)
inactive: [6] 101 % of control | [7] 97 % of control | endpoint: mean survival time, dose: 400.0 mg/kg/injection, schedule: Q01DX009 (ip), vehicle: saline with Tween-80 93 % of control

CC(=O)OCC(OC(C)=O)C(OC(C)=O)C(OC(C)=O)C(COC(C)=O)OC(C)=O (centres undefined)
inactive: [3] 97 % of control | [4] 93 % of control | [5] 98 % of control

N#CCCP(CCC#N)CCCCCP(CCC#N)CCC#N
inactive: endpoint: mean survival time, dose: 100.0 mg/kg/injection, schedule: Q01DX001 (ip), vehicle: saline with Tween-80 100 % of control | endpoint: mean survival time, dose: 200.0 mg/kg/injection, schedule: Q01DX001 (ip), vehicle: saline with Tween-80 92 % of control | endpoint: mean survival time, dose: 400.0 mg/kg/injection, schedule: Q01DX001 (ip), vehicle: saline with Tween-80 86 % of control

CC(=O)OC1C2CC3C(C2)C31 (centres undefined)
inactive: endpoint: mean survival time, dose: 50.0 mg/kg/injection, schedule: Q01DX009 (ip), vehicle: saline with Tween-80 105 % of control | [6] 97 % of control | [7] 94 % of control

CCCCCC#CC(=O)OC(C)C
inactive: endpoint: mean survival time, dose: 100.0 mg/kg/injection, schedule: Q04DX002 (ip), vehicle: saline with Tween-80 102 % of control | endpoint: mean survival time, dose: 200.0 mg/kg/injection, schedule: Q04DX002 (ip), vehicle: saline with Tween-80 102 % of control | endpoint: mean survival time, dose: 400.0 mg/kg/injection, schedule: Q04DX002 (ip), vehicle: saline with Tween-80 102 % of control

COC(=O)c1cc(NC(=O)Nc2cc(C(F)(F)F)ccc2Cl)cc(C(=O)OC)c1
inactive: endpoint: mean survival time, dose: 100.0 mg/kg/injection, schedule: Q04DX002 (ip), vehicle: Klucel (hydroxypropylcellulose) (HPC) 112 % of control | endpoint: mean survival time, dose: 200.0 mg/kg/injection, schedule: Q04DX002 (ip), vehicle: Klucel (hydroxypropylcellulose) (HPC) 105 % of control | endpoint: mean survival time, dose: 400.0 mg/kg/injection, schedule: Q04DX002 (ip), vehicle: Klucel (hydroxypropylcellulose) (HPC) 105 % of control

N=C(N)SCC(O)c1ccccc1 (centres undefined)
inactive: [1] 104 % of control | [2] 95 % of control

Cc1ccccc1N=Nc1c(O)n(-c2ccccc2C)c(=S)n(-c2ccccc2)c1=O
inactive: endpoint: mean survival time, dose: 75.0 mg/kg/injection, schedule: Q01DX003 (ip), vehicle: Klucel (hydroxypropylcellulose) (HPC) 88 % of control | endpoint: mean survival time, dose: 150.0 mg/kg/injection, schedule: Q01DX003 (ip), vehicle: Klucel (hydroxypropylcellulose) (HPC) 104 % of control | endpoint: mean survival time, dose: 300.0 mg/kg/injection, schedule: Q01DX003 (ip), vehicle: Klucel (hydroxypropylcellulose) (HPC) 86 % of control

CCCCS/C=C1/Sc2cc[nH]c2C1=O
inactive: endpoint: mean survival time, dose: 100.0 mg/kg/injection, schedule: Q04DX003 (ip), vehicle: Klucel (hydroxypropylcellulose) (HPC) 96 % of control | endpoint: mean survival time, dose: 200.0 mg/kg/injection, schedule: Q04DX003 (ip), vehicle: Klucel (hydroxypropylcellulose) (HPC) 96 % of control | endpoint: mean survival time, dose: 400.0 mg/kg/injection, schedule: Q04DX003 (ip), vehicle: Klucel (hydroxypropylcellulose) (HPC) 94 % of control
